The EC50 is the concentration that produces a half-maximal response.

In assay [1] the target is T1, mTRPV1 (mouse TRPV1) (Mus musculus, UniProt Q704Y3, INS430GGG).
T1 construct: full-length mTRPV1 cDNA in pEYFP-N3, C-terminal eYFP fusion, transiently expressed in HEK293 cells; homotetramer
Kind of assay: patch-clamp of transfected HEK293 cells, concentration-response, Hill fit. Type of assay: cell-based. (Patch clamp records ionic current or voltage across a cell membrane.)

Assay [2] concerns the target T2, mTRPV1 (mouse TRPV1) (Mus musculus, UniProt Q704Y3).
T2 construct: full-length mTRPV1 cDNA in pEYFP-N3, C-terminal eYFP fusion, transiently expressed in HEK293 cells; homotetramer
Described as above. Type of assay: cell-based.

T2 sequence (Q704Y3 whole entry, the tested form may be a part): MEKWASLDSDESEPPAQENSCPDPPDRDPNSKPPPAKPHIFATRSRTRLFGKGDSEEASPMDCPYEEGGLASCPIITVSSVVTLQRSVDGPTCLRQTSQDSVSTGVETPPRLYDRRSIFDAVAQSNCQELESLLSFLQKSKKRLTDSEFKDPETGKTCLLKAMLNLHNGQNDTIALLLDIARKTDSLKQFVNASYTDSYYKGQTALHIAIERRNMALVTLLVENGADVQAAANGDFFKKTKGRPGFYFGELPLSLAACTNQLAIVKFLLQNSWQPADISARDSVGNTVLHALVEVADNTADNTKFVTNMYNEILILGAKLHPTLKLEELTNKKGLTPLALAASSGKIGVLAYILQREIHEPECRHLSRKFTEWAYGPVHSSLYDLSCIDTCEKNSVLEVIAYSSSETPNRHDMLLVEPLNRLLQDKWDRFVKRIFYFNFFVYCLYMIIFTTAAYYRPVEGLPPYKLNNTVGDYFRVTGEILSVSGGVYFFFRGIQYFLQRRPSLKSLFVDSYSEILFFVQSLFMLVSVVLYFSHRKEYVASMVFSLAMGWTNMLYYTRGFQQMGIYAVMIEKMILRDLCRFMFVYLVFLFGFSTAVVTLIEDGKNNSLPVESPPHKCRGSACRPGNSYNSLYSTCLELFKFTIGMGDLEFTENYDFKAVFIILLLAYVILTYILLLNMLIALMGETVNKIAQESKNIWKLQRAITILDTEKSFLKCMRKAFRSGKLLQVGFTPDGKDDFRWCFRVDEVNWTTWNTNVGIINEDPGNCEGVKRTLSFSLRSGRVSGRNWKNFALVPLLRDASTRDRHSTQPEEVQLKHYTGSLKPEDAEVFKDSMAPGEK
T1 sequence (Q704Y3 with tags, fused parts or gaps INS430GGG): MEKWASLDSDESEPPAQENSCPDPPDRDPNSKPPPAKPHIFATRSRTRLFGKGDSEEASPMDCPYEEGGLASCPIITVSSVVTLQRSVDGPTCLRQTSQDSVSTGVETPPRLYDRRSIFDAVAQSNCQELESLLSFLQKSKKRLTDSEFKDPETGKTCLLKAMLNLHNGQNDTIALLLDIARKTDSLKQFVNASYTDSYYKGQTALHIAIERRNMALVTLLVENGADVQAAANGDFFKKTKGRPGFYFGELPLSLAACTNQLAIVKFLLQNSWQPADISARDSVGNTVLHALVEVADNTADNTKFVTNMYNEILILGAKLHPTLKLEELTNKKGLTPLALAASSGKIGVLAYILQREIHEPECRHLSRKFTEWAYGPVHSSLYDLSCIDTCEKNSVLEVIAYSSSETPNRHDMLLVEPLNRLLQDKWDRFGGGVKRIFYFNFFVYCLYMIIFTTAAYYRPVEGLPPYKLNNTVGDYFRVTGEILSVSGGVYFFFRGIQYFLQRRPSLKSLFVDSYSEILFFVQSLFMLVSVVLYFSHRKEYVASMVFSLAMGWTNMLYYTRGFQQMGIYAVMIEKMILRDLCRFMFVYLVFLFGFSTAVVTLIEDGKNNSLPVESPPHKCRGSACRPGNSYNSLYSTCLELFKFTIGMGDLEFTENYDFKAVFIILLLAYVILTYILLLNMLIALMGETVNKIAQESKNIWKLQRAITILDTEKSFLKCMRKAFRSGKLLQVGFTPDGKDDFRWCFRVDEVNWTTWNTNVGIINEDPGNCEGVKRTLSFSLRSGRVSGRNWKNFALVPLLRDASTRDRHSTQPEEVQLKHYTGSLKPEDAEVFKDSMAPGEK

With `COc1cc(CNC(=O)CCCC/C=C/C(C)C)ccc1O` [capsaicin], the EC50 is 70 ± 30 nM on mTRPV1 (mouse TRPV1) [1] and 150 ± 20 nM at mTRPV1 (mouse TRPV1) [2].

These data come from article PMC5035920, “Exploring functional roles of TRPV1 intracellular domains with unstructured peptide-insertion screening” (Scientific Reports, 2016).
